Measured values as given in ChEMBL document CHEMBL4619712, “Double-component diazeniumdiolate derivatives as anti-cancer agents” (Bioorg Med Chem, 2020).
Calls of active or inactive are those of the source. The rule behind the calls is not given here.

Assays:
CCRF-CEM [1] = assay: (§1) Induction of apoptosis in human CCRF-CEM cells assessed as viable cells at 8 uM after 72 hrs by Annexin V/propidium iodide staining based flow cytometry (reference value: 90.4%); type: functional; details: read-out: Activity
[2] = target: c-Jun N-terminal kinase, JNK (Homo sapiens) (UniProt P45983+P53779+P45984); assay: Activation of JNK in human CCRF-CEM cells assessed as increase in phosphorylated JNK level at 8 uM incubated for 1 to 6 hrs by Western blot analysis; type: cell-based
CCRF-CEM [3] = assay: Cell cycle arrest in human CCRF-CEM cells assessed as accumulation of cells at G2/M phase at 8 uM after 24 hrs by RNAse/propidium iodide staining based flow cytometry (reference value: 25.6%); type: functional
CCRF-CEM [4] = assay: as §1; type: functional; details: read-out: Activity; remark: listed apart in the source
CCRF-CEM [5] = assay: Induction of apoptosis in human CCRF-CEM cells assessed as early apoptotic cells at 8 uM after 72 hrs by Annexin V/propidium iodide staining based flow cytometry (reference value: 0.87%); type: functional
CCRF-CEM [6] = assay: Induction of apoptosis in human CCRF-CEM cells assessed as late apoptotic cells at 8 uM after 72 hrs by Annexin V/propidium iodide staining based flow cytometry (reference value: 8.60%); type: functional
CCRF-CEM [7] = assay: Induction of apoptosis in human CCRF-CEM cells assessed as necrotic cells at 2 uM after 72 hrs by Annexin V/propidium iodide staining based flow cytometry (reference value: 0.11%); type: functional
CCRF-CEM [8] = assay: Induction of apoptosis in human CCRF-CEM cells assessed as necrotic cells at 4 uM after 72 hrs by Annexin V/propidium iodide staining based flow cytometry (reference value: 0.11%); type: functional
CCRF-CEM [9] = assay: Cell cycle arrest in human CCRF-CEM cells assessed as accumulation of cells at S phase at 8 uM after 48 hrs by RNAse/propidium iodide staining based flow cytometry (reference value: 46%); type: functional
CCRF-CEM [10] = assay: Cell cycle arrest in human CCRF-CEM cells assessed as accumulation of cells at G2/M phase at 8 uM after 48 hrs by RNAse/propidium iodide staining based flow cytometry (reference value: 25.6%); type: functional
CCRF-CEM [11] = assay: Cell cycle arrest in human CCRF-CEM cells assessed as accumulation of cells at S phase at 8 uM after 24 hrs by RNAse/propidium iodide staining based flow cytometry (reference value: 46%); type: functional
CCRF-CEM [12] = assay: Cell cycle arrest in human CCRF-CEM cells assessed as accumulation of cells at sub G1 phase at 8 uM after 48 hrs by RNAse/propidium iodide staining based flow cytometry (reference value: 0.1%); type: functional
CCRF-CEM [13] = assay: Cell cycle arrest in human CCRF-CEM cells assessed as accumulation of cells at G1/G0 phase at 8 uM after 72 hrs by RNAse/propidium iodide staining based flow cytometry (reference value: 28.3%); type: functional
CCRF-CEM [14] = assay: Induction of apoptosis in human CCRF-CEM cells assessed as necrotic cells at 8 uM after 24 hrs by Annexin V/propidium iodide staining based flow cytometry (reference value: 0.11%); type: functional
CCRF-CEM [15] = assay: Induction of apoptosis in human CCRF-CEM cells at 8 uM by Annexin V-FITC/propidium iodide staining based flow cytometry; type: functional, cell-based; details: TDE = time-dependent effect
CCRF-CEM [16] = assay: Induction of apoptosis in human CCRF-CEM cells assessed as viable cells at 8 uM after 8 hrs by Annexin V/propidium iodide staining based flow cytometry (reference value: 90.4%); type: functional; details: read-out: Activity
CCRF-CEM [17] = assay: Induction of apoptosis in human CCRF-CEM cells assessed as early apoptotic cells at 4 uM after 72 hrs by Annexin V/propidium iodide staining based flow cytometry (reference value: 0.87%); type: functional
CCRF-CEM [18] = assay: Induction of apoptosis in human CCRF-CEM cells assessed as necrotic cells at 8 uM after 8 hrs by Annexin V/propidium iodide staining based flow cytometry (reference value: 0.11%); type: functional
CCRF-CEM [19] = assay: Induction of apoptosis in human CCRF-CEM cells assessed as late apoptotic cells at 8 uM after 8 hrs by Annexin V/propidium iodide staining based flow cytometry (reference value: 8.60%); type: functional
CCRF-CEM [20] = assay: Induction of apoptosis in human CCRF-CEM cells assessed as viable cells at 8 uM after 48 hrs by Annexin V/propidium iodide staining based flow cytometry (reference value: 90.4%); type: functional; details: read-out: Activity
CCRF-CEM [21] = assay: Induction of apoptosis in human CCRF-CEM cells assessed as early apoptotic cells at 8 uM after 48 hrs by Annexin V/propidium iodide staining based flow cytometry (reference value: 0.87%); type: functional
CCRF-CEM [22] = assay: Induction of apoptosis in human CCRF-CEM cells assessed as viable cells at 4 uM after 72 hrs by Annexin V/propidium iodide staining based flow cytometry (reference value: 90.4%); type: functional; details: read-out: Activity
CCRF-CEM [23] = assay: Induction of apoptosis in human CCRF-CEM cells assessed as necrotic cells at 16 uM after 72 hrs by Annexin V/propidium iodide staining based flow cytometry (reference value: 0.11%); type: functional
CCRF-CEM [24] = assay: Induction of apoptosis in human CCRF-CEM cells assessed as viable cells at 2 uM after 72 hrs by Annexin V/propidium iodide staining based flow cytometry (reference value: 90.4%); type: functional; details: read-out: Activity
CCRF-CEM [25] = assay: Induction of apoptosis in human CCRF-CEM cells assessed as early apoptotic cells at 8 uM after 8 hrs by Annexin V/propidium iodide staining based flow cytometry (reference value: 0.87%); type: functional
CCRF-CEM [26] = assay: Induction of apoptosis in human CCRF-CEM cells assessed as increase in Bax level after 72 hrs by western blot analysis; type: functional, cell-based
[27] = target: MAP kinase p38 (Homo sapiens) (UniProt O15264+Q15759+Q16539+P53778); assay: Activation of p38 in human CCRF-CEM cells assessed as increase in p38 level at 8 uM incubated for 1 to 6 hrs by Western blot analysis; type: cell-based

O=[N+]([O-])c1ccc(O/N=[N+](\[O-])N2CCC(CN3CCN(/[N+]([O-])=N/Oc4ccc([N+](=O)[O-])cc4[N+](=O)[O-])CC3)CC2)c([N+](=O)[O-])c1
viability at 8 µM (CCRF-CEM [1]): 34.8% | Activity [2]: Active | Activity (CCRF-CEM [3]): 45.7% | viability at 8 µM (CCRF-CEM [4]): 42.5% | Activity (CCRF-CEM [5]): 8.93% | Activity (CCRF-CEM [6]): 56.2% | Activity (CCRF-CEM [7]): 0.015% | Activity (CCRF-CEM [8]): 0.028% | Activity (CCRF-CEM [9]): 8.2% | Activity (CCRF-CEM [10]): 54.5% | Activity (CCRF-CEM [11]): 26.3% | Activity (CCRF-CEM [12]): 8.4% | Activity (CCRF-CEM [13]): 28.8% | Activity (CCRF-CEM [14]): 0.072% | Activity (CCRF-CEM [15]): Tde | viability at 8 µM (CCRF-CEM [16]): 61.5% | Activity (CCRF-CEM [17]): 3.53% | Activity (CCRF-CEM [18]): 0.38% | Activity (CCRF-CEM [19]): 24.3% | viability at 8 µM (CCRF-CEM [20]): 43.6% | Activity (CCRF-CEM [21]): 6.51% | viability at 4 µM (CCRF-CEM [22]): 77.9% | Activity (CCRF-CEM [23]): 0.08% | viability at 2 µM (CCRF-CEM [24]): 87.5% | Activity (CCRF-CEM [25]): 13.8% | Activity (CCRF-CEM [26]): Dose-dependent effect | Activity [27]: Active
